For one data set, the target named is TTR (Homo sapiens (Human), UniProt P02766). The data set is described as follows: biochemical. It is filed as binding. The note with it: FITC-coupled TTR FP probe; read-out: TTR FP IC50.
Data set [1] can be described thus: Metabolic stability and clearance in mouse liver microsomes. The following applies: 30 minute incubation. It counts as in vitro ADME. Here is the method:
The results of metabolic stability determinations for novel compounds and testosterone (positive control) were conducted in the presence of human, rat, mouse, and monkey liver microsomes. Values shown are percent of parent remaining after a 30 minute incubation. All measurements were done in duplicate. Assay results for testosterone were within an acceptable range.
Mixed-gender human liver microsomes (Lot #1710084), male Sprague-Dawley rat liver microsomes (Lot #1610290), male CD-1 mouse liver microsomes (Lot #1710069), and male Cynomolgous liver microsomes (Lot #1510193) were purchased from XenoTech. The reaction mixture, minus NADPH, was prepared as described below. The test article was added into the reaction mixture at a final concentration of 1 μM. The control compound, testosterone, was run simultaneously with the test article in a separate reaction. An aliquot of the reaction mixture (without cofactor) was equilibrated in a shaking water bath at 37° C. for 3 minutes. The reaction was initiated by the addition of cofactor, and the mixture was incubated in a shaking water bath at 37° C. Aliquots (100 μL) were withdrawn at 0, 10, 20, 30, and 60. […] Half-lives were calculated using GraphPad software, fitting to a single-phase exponential decay equation.
On the technique in general: Liver microsomes are vesicles of endoplasmic reticulum, rich in cytochrome P450 enzymes.

Data set [2] can be described thus: Plasma protein binding, mouse plasma. It counts as in vitro ADME. The following applies: CD-1, pH 7.4, read-out: % PPB (converted). Here is the method: Plasma protein binding (PPB) for compounds determination for compound (±)-44 in PBS (pH 7.4) was conducted by Eurofins using equilibrium dialysis of plasma with HPLC-UV/Vis detection.
The peak areas of the test compound in the buffer and test samples were used to calculate percent binding and recovery according to the following formulas:
• Areap=Peak area of analyte in protein matrix • Areab=Peak area of analyte in buffer • Areac=Peak area of analyte in control sample

In a further data set the target is serum RBP4 (Mus musculus (Mouse), UniProt Q00724). The data set is described as follows: Serum RBP4 after long-term oral dosing in Abca4−/− mice. It counts as in vivo. The note with it: 25 mg/kg daily in chow. The method, then:
FIG. 7. Effect of the long-term oral (±)-44 administration in Abca4^−/− mice on serum RBP4 levels. Serum RBP4 levels were measured in vehicle-treated Abca4^−/− mice (squares) and (±)-44-treated Abca4-mice (triangles) at the indicated time points. […] Error bars show S.D. Each data point on the graph represents a serum RBP4 concentration from an individual animal.
Blood samples were collected from a tail vein. Whole blood was drawn into a centrifuge tube and was allowed to clot at room temperature for 30 minutes followed by centrifugation at 2000 g for 15 minutes at […] to collect serum. Aliquots of plasma samples collected in the mouse pharmacokinetic study were analyzed for the RBP4 concentration using the RBP4 (mouse/rat) dual ELISA kit (AdipoGen, San Diego, CA) following the manufacturer's instructions. In adi-hRBP4 transgenic mouse experiments, blood samples were collected from a tail vein. Whole blood was drawn into a centrifuge tube and was allowed to clot at room temperature for 30 min followed by centrifugation at 2000 g for 15 min at +4° C. to collect serum. Mouse serum RBP4 (produced predominantly in the liver) was measured using the RBP4 (mouse/rat) dual ELISA kit (AdipoGen, San Diego, CA; catalog number AG-45A-0012YTP-KI01)
(±)-44 was formulated into a Picolab 5053 chow to ensure a daily dosing of 25 mg/kg of (±)-44. […]

A further data set relates to Abca4−/−/Rdh8−/− mice. The data set is described as follows: A2E accumulation in eyes of Abca4−/−/Rdh8−/− mice. It counts as in vivo, mouse. The note with it: 25 mg/kg daily in chow, 10 weeks, eyecups, HPLC. The source says: FIG. 10. Effect of the long-term oral (±)-44 administration on the level of the lipofuscin fluorophore A2E in eyes of the Abca4^−/−/Rdh8^−/− mice. Bisretinoids were extracted from the eyecups of vehicle-treated wild type mice (circles), vehicle-treated Abca4^−/−/Rdh8^−/− knockout mice (squares), and (±)-44-treated Abca4^−/−/Rdh8^−/− mice (triangles) after 10 weeks of dosing and analyzed by HPLC. A significant 77% reduction in A2E concentration was detected in (±)-44-treated Abca4^−/−/Rdh8^−/− mice compared with vehicle-treated double-knockout controls; one-way ANOVA with Holm-Sidak post hoc test, p<0.0001 (****).
(±)-44 was formulated into a Picolab 5053 chow to ensure a daily dosing of 25 mg/kg of (±)-44. Long-term 10-week dosing of the compound formulated into a chow was conducted in Abca4^−/−/Rdh8^−/− mice. The age-matched control group of wild-type C57BL/6J mice was kept on a standard Picolab 5053 chow. The age-matched reference group of mice was used for defining the basal level of A2E in mice in the absence of the Abca4 and Rdh8 ablation. […] Following the 10 weeks of dosing, the eyecups of treated and untreated Abca4^−/−/Rdh8^−/− mice as well as the eyecups of the reference wild type mice were collected for the quantitative A2E analysis.

As usually defined, the IC50 is the concentration that gives 50% inhibition. Consider `Cc1cc(C(=O)O)nc(N2CCC(COc3ccccc3C(F)(F)F)C2)n1` (racemic) [Compound (±)-44, (±)-6-Methyl-2-(3-((2-(trifluoromethyl)phenoxy)methyl)pyrrolidin-1-yl)pyrimidine-4-carboxylic Acid], for which the IC50 at TTR is 2850 nM. For the same molecule, the “Liver Microsomal Stability (% remaining at 30 min), MLM” value in data set [1] worked out at 95%. Besides, the fraction unbound in data set [2] is 0.04. Moreover, the “serum RBP4 reduction compared to untreated Abca4−/− mice” value at serum RBP4 (week 12) amounted to 82%. For the same molecule, the “serum RBP4 reduction compared with baseline” value on serum RBP4 (week 12, Abca4−/− mice) was found to be 79%. The “reduction in A2E concentration vs vehicle-treated Abca4−/−/Rdh8−/− mice” value in the data set on Abca4−/−/Rdh8−/− mice turned out to be 77%.

The values above are taken from patent US20230348415A1, “BISPECIFIC ANTAGONISTS OF RETINOL-BINDING PROTEIN 4 THAT STABILIZE TRANSTHYRETIN TETRAMERS, THEIR PREPARATION, AND USE IN THE TREATMENT OF COMMON AGE-RELATED COMORBIDITIES” (The Trustees of Columbia University in the City of New York, priority 2020, published 2023).
